Experimental data taken from ChEMBL document CHEMBL4507294, “Data for DCP probe MSD-CYP11B2” (2021).

Experiments:
[1] = target: T1, 5-hydroxytryptamine receptor 3A (Homo sapiens) (UniProt P46098); test: Inhibition of Serotonin (5-Hydroxytryptamine) 5-HT3 at 10 µM in the Eurofins-Panlabs radioligand binding assay (Eurofins_assay_271910); parameters: ligand concentration 0.69 nM; settings: Compound concentration 10.0 uM
T1 sequence (whole entry): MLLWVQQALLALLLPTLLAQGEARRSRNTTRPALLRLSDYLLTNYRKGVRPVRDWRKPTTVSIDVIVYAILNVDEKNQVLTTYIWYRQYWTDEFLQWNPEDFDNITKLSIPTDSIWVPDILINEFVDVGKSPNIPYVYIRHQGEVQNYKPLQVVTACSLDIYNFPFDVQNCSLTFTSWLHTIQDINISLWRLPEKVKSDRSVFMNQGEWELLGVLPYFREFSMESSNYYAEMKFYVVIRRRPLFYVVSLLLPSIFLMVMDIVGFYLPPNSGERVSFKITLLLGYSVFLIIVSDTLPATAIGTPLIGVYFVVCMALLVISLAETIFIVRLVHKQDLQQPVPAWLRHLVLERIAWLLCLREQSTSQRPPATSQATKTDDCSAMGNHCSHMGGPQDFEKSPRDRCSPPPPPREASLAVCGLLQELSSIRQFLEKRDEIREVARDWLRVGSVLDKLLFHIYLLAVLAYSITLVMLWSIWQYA

[2] = target: Histamine H1 receptor (Homo sapiens) (UniProt P35367); settings: Compound concentration 10.0 uM
Histamine H1 receptor (Homo sapiens), sequence (P35367 whole entry): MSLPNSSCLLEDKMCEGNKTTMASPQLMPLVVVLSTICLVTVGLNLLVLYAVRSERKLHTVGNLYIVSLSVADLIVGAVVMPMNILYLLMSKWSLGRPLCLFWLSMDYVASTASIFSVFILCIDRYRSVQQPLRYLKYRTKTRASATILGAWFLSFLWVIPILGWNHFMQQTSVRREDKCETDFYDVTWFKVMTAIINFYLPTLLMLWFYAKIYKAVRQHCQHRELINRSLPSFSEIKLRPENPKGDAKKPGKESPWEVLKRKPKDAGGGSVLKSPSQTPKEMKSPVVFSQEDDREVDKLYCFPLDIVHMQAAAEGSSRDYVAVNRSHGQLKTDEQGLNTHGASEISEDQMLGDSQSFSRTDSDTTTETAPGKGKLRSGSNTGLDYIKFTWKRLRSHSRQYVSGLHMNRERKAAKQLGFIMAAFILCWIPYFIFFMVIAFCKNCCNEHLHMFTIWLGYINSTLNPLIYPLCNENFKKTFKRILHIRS

## CC(C)(O)c1cncc(-c2nc3ccc(F)cc3n2C2CC2)c1 [MSD-CYP11B2]
[1]
  inhibition: -4%
[2]
  inhibition: 23%
